Experimental data as given in patent US20140315809A1, “CALCIMIMETICS AND METHODS FOR THEIR USE” (KAI PHARMACEUTICALS INC., priority 2011, published 2014).
Where two headings read alike, the source gives them in different places. Blank lines part the entries; values can stand above or below the compound they belong to.

Legend:
[1] = system: 5/6 nephrectomy (Nx) rat model of renal insufficiency; assay: PTH suppression in 5/6 Nx rats, daily dosing for 28 days; type: in vivo; conditions: daily 28 days, Ac-c(C)arrrar-NH2 1 mg/kg IV, cinacalcet 10 mg/kg PO
Method: The therapeutic efficacy of Ac-c(C)arrrar-NH2 (SEQ ID NO:3) was assessed using the 5/6 nephrectomy (Nx) rat model of renal insufficiency. The 5/6 Nx male rats were obtained from Charles River Laboratories (Wilmington, Mass.). These rats have undergone surgical removal of one kidney and ⅔ of the other kidney and were fed a high-phosphate diet. All experimental procedures with animals were performed according to IACUC guidelines. Statistical analysis was performed using one-way ANOVA with Bonferroni post test. All p-values are nominal.
Tail vein blood samples were taken periodically for measurement of PTH. PTH was measured using the Immutopics BioActive Intact ELISA (Cat #60-2700; Immutopics, San Clemente, Calif.).

[2] = system: patients diagnosed with CKD-BMD and SHPT receiving hemodialysis; assay: Single-dose clinical study: adverse events; type: in vivo, human; conditions: for Adverse Event: Anemia / Adverse Event: Congestive heart failure / Adverse Event: Decreased ionized calcium / Adverse Event: Gastro-esophageal reflux / Adverse Event: Injection site pruritis / Adverse Event: Paresthesias / Adverse Event: Pneumonia / Adverse Event: Toothache / Number of subjects with ≧1 AE: n (%) of subjects
Method: (§1) A clinical study was performed to assess the safety and tolerability of rising single doses of Ac-c(C)arrrar-NH2 (SEQ ID NO:3), administered by IV bolus to patients diagnosed with CKD-BMD and SHPT, and who were receiving hemodialysis. Data were generated to measure changes in patient serum intact PTH (iPTH) and serum calcium as well as bioavailability of the single dose of Ac-c(C)arrrar-NH2 (SEQ ID NO:3).
(§2) A double-blind, randomized, placebo-controlled, multicenter study in subjects receiving thrice-weekly hemodialysis (HD) was designed and carried out. The major inclusion criteria included hemodialysis for at least 3 months prior to the start of the study, a serum iPTH level greater than 300 pg/mL, a serum cCa (corrected calcium) level greater than or equal to 9.0 mg/dL and receiving of stable doses of active vitamin D or analogs, phosphate binders, and calcium supplements.
(§3) Cohorts 1, 2 and 3 were conducted with a two-period crossover design. Each cohort enrolled 4 subjects randomized 1:1 to Ac-c(C)arrrar-NH2 (SEQ ID NO:3) followed by placebo or placebo followed by Ac-c(C)arrrar-NH2 (SEQ ID NO:3). The dose levels of Ac-c(C)arrrar-NH2 (SEQ ID NO:3) for Cohorts 1-3 were 5, 10 and 20 mg. Cohort 4 enrolled 8 subjects who were randomized 1:1 to 40 mg Ac-c(C)arrrar-NH2 (SEQ ID NO:3) or placebo in a parallel group. Cohort 5 enrolled 8 subjects were randomized 1:1 to 60 mg Ac-c(C)arrrar-NH2 (SEQ ID NO:3) or placebo in a parallel group.
(§4) Ac-c(C)arrrar-NH2 (SEQ ID NO:3) or placebo was administered by IV bolus injection 2-4 hours following completion of HD.
Adverse events were captured through 7 days after study drug administration.
Adverse events experienced by each of the subjects was recorded for 7 days after administration of the Ac-c(C)arrrar-NH2 (SEQ ID NO:3) or placebo. A single serious adverse event occurred in one subject who had been treated with placebo in the 10 mg dose cohort. The subject discontinued form the study prior to receiving Ac-c(C)arrrar-NH2 (SEQ ID NO:3). There were no reports of nausea, vomiting or diarrhea.

[3] = system: patients diagnosed with CKD-BMD and SHPT receiving hemodialysis; assay: Single-dose clinical study: corrected calcium; type: in vivo, human; conditions: single IV bolus 5-60 mg
Method: as §1
as §2, with “supplements. […]” for “supplements.”
Serum iPTH levels were determined using the electrochemiluminescence immunoassay (ECLIA) on the Roche Elecsys® analyzer. Calcium levels were adjusted for albumin <4 g/dL with the following equation: cCa=[measured Ca in mg/dL]+[4-(albumin in g/dL)]×0.8
The effects of Ac-c(C)arrrar-NH2 (SEQ ID NO:3) administration on serum iPTH and corrected calcium levels was also determined in this study. […] Blood from each subject was then analyzed to determine levels of iPTH and corrected calcium. […]

[4] = Single-dose clinical study: pharmacokinetics, noncompartmental analysis; type: in vivo, human; conditions: for clearance / AUC / Cmax / half-life / Vd: human; for Vd: read-out: Vss
Method: as §1, §2, §3, §4
Pharmacokinetic (PK) analysis was performed on samples obtained from the treated subjects to determine bioavailability of the administered Ac-c(C)arrrar-NH2 (SEQ ID NO:3). […] Clearance (CL) and volume of distribution as steady state (Vss) values appear to be dose-independent over the range evaluation. Total clearance of Ac-c(C)arrrar-NH2 (SEQ ID NO:3) was approximately about 2 L/h. Ac-c(C)arrrar-NH2 (SEQ ID NO:3) was readily cleared from the central compartment by hemodialysis.

[5] = plasma, Cohort 1, 5 mg single IV bolus, hemodialysis subjects, geometric mean
[6] = plasma, Cohort 2, 10 mg single IV bolus, hemodialysis subjects, geometric mean
[7] = plasma, Cohort 3, 20 mg single IV bolus, hemodialysis subjects, geometric mean
[8] = plasma, Cohort 4, 40 mg single IV bolus, hemodialysis subjects, geometric mean
[9] = plasma, Cohort 5, 60 mg single IV bolus, hemodialysis subjects, geometric mean

SMILES: C[C@@H](NCCCc1cccc(C(F)(F)F)c1)c1cccc2ccccc12 [cinacalcet]
PTH levels (in words) ([1]; 6 hours after the last dosing): reduced
PTH levels (in words) ([1]; 16 hours after the last dosing): increased
PTH levels (in words) ([1]; 48 hours after the last dosing): increased

corrected calcium level, lowest in any subject at any time during the study [3]: ≥ 7.5 mg/dL
Clearance (CL) and volume of distribution (Vss) relative to dose ([4]; 5-60 mg single IV bolus): dose-independent
clearance ([4]; in vivo, intravenous, estimated, hemodialysis subjects, read-out: Hemodialysis clearance (converted)): ~550 mL/min
AUC [4, 5]: 1080 ng·h/mL
Cmax [4, 5]: 133 ng/mL
clearance ([4]; plasma, Cohort 1, 5 mg single IV bolus, hemodialysis subjects, geometric mean, read-out: CL (converted)): 28 mL/min
half-life ([4]; plasma, Cohort 1, 5 mg single IV bolus, hemodialysis subjects, geometric mean, read-out: T½ (converted)): 121 h
Vd [4, 5]: 278 L
AUC [4, 6]: 2770 ng·h/mL
Cmax [4, 6]: 257 ng/mL
clearance ([4]; plasma, Cohort 2, 10 mg single IV bolus, hemodialysis subjects, geometric mean, read-out: CL (converted)): 31.8 mL/min
half-life ([4]; plasma, Cohort 2, 10 mg single IV bolus, hemodialysis subjects, geometric mean, read-out: T½ (converted)): 81.7 h
Vd [4, 6]: 203 L
AUC [4, 7]: 4680 ng·h/mL
Cmax [4, 7]: 479 ng/mL
clearance ([4]; plasma, Cohort 3, 20 mg single IV bolus, hemodialysis subjects, geometric mean, read-out: CL (converted)): 20.2 mL/min
half-life ([4]; plasma, Cohort 3, 20 mg single IV bolus, hemodialysis subjects, geometric mean, read-out: T½ (converted)): 175 h
Vd [4, 7]: 293 L
AUC [4, 8]: 8890 ng·h/mL
Cmax [4, 8]: 686 ng/mL
AUC [4, 9]: 14800 ng·h/mL
Cmax [4, 9]: 1080 ng/mL
clearance ([4]; plasma, Cohort 5, 60 mg single IV bolus, hemodialysis subjects, geometric mean, read-out: CL (converted)): 24.2 mL/min
half-life ([4]; plasma, Cohort 5, 60 mg single IV bolus, hemodialysis subjects, geometric mean, read-out: T½ (converted)): 115 h
Vd [4, 9]: 232 L
half-life ([4]; plasma, across the dose range 5-60 mg single IV bolus, read-out: geometric mean terminal elimination half-life): 81.7 to 175 h
clearance ([4]; plasma, single IV bolus, hemodialysis subjects, read-out: Total clearance (converted)): ~33.3 mL/min
SMILES: CC(=O)N[C@H](CSSC[C@H](N)C(=O)O)C(=O)N[C@H](C)C(=O)N[C@H](CCCNC(=N)N)C(=O)N[C@H](CCCNC(=N)N)C(=O)N[C@H](CCCNC(=N)N)C(=O)N[C@H](C)C(=O)N[C@H](CCCNC(=N)N)C(N)=O [Ac-c(C)arrrar-NH2]
Adverse Event: Anemia ([2]; 5 mg dose cohort): 0 (0%)
Adverse Event: Congestive heart failure ([2]; 5 mg dose cohort): 0 (0%)
Adverse Event: Decreased ionized calcium ([2]; 5 mg dose cohort): 0 (0%)
Adverse Event: Gastro-esophageal reflux ([2]; 5 mg dose cohort): 1 (25%)
Adverse Event: Injection site pruritis ([2]; 5 mg dose cohort): 0 (0%)
Adverse Event: Paresthesias ([2]; 5 mg dose cohort): 1 (25%)
Adverse Event: Pneumonia ([2]; 5 mg dose cohort): 0 (0%)
Adverse Event: Toothache ([2]; 5 mg dose cohort): 0 (0%)
Number of subjects with ≧1 AE ([2]; 5 mg dose cohort): 1 (25%)
Adverse Event: Anemia ([2]; 10 mg dose cohort): 0 (0%)
Adverse Event: Congestive heart failure ([2]; 10 mg dose cohort): 0 (0%)
Adverse Event: Decreased ionized calcium ([2]; 10 mg dose cohort): 1 (33%)
Adverse Event: Gastro-esophageal reflux ([2]; 10 mg dose cohort): 0 (0%)
Adverse Event: Injection site pruritis ([2]; 10 mg dose cohort): 0 (0%)
Adverse Event: Paresthesias ([2]; 10 mg dose cohort): 0 (0%)
Adverse Event: Pneumonia ([2]; 10 mg dose cohort): 0 (0%)
Adverse Event: Toothache ([2]; 10 mg dose cohort): 0 (0%)
Number of subjects with ≧1 AE ([2]; 10 mg dose cohort): 1 (33%)
Adverse Event: Anemia ([2]; 20 mg dose cohort): 0 (0%)
Adverse Event: Congestive heart failure ([2]; 20 mg dose cohort): 0 (0%)
Adverse Event: Decreased ionized calcium ([2]; 20 mg dose cohort): 0 (0%)
Adverse Event: Gastro-esophageal reflux ([2]; 20 mg dose cohort): 0 (0%)
Adverse Event: Injection site pruritis ([2]; 20 mg dose cohort): 0 (0%)
Adverse Event: Paresthesias ([2]; 20 mg dose cohort): 0 (0%)
Adverse Event: Pneumonia ([2]; 20 mg dose cohort): 0 (0%)
Adverse Event: Toothache ([2]; 20 mg dose cohort): 1 (25%)
Number of subjects with ≧1 AE ([2]; 20 mg dose cohort): 1 (25%)
Adverse Event: Anemia ([2]; 40 mg dose cohort): 0 (0%)
Adverse Event: Congestive heart failure ([2]; 40 mg dose cohort): 0 (0%)
Adverse Event: Decreased ionized calcium ([2]; 40 mg dose cohort): 4 (100%)
Adverse Event: Gastro-esophageal reflux ([2]; 40 mg dose cohort): 0 (0%)
Adverse Event: Injection site pruritis ([2]; 40 mg dose cohort): 1 (25%)
Adverse Event: Paresthesias ([2]; 40 mg dose cohort): 1 (25%)
Adverse Event: Pneumonia ([2]; 40 mg dose cohort): 0 (0%)
Adverse Event: Toothache ([2]; 40 mg dose cohort): 0 (0%)
Number of subjects with ≧1 AE ([2]; 40 mg dose cohort): 4 (100%)
Adverse Event: Anemia ([2]; 60 mg dose cohort): 0 (0%)
Adverse Event: Congestive heart failure ([2]; 60 mg dose cohort): 0 (0%)
Adverse Event: Decreased ionized calcium ([2]; 60 mg dose cohort): 2 (50%)
Adverse Event: Gastro-esophageal reflux ([2]; 60 mg dose cohort): 0 (0%)
Adverse Event: Injection site pruritis ([2]; 60 mg dose cohort): 0 (0%)
Adverse Event: Paresthesias ([2]; 60 mg dose cohort): 0 (0%)
Adverse Event: Pneumonia ([2]; 60 mg dose cohort): 0 (0%)
Adverse Event: Toothache ([2]; 60 mg dose cohort): 0 (0%)
Number of subjects with ≧1 AE ([2]; 60 mg dose cohort): 2 (50%)
tolerability ([2]; single IV bolus 5-60 mg): very well-tolerated
reports of nausea, vomiting or diarrhea ([2]; single IV bolus 5-60 mg, 7 days after administration): no reports
total plasma exposure (Cmax and AUCall) relative to dose ([4]; 5-60 mg single IV bolus): reasonably proportional to the administered dose
